According to patent US20220267310A1, “QUINAZOLINE AND CINNOLINE DERIVATIVES AS DNA-PK INHIBITOR” (MEDSHINE DISCOVERY INC., priority 2019, published 2022):
pIC50: −log10 of the molar value. Several values for one entry are separate records, joined by “and”; a condition that tells them apart may be missing. Equal entries are not always repeated. Where two headings read alike, the source gives them in different places.

Key:
DNA-PK (h) = target: T1, DNA-PK (h) (Homo sapiens, UniProt P78527); assay: DNA-PK kinase inhibitory activity (HTRF, Eurofins); assay type: biochemical; conditions: ATP: 10 μM
T1 construct: Eurofins Pharma Discovery Service (contract assay)

[1] = Pharmacokinetic evaluation in mice, IV and PO; assay type: in vivo, Balb/c female mice; conditions: for bioavailability: plasma; for bioavailability / Bioavailability (%): mouse; for Vd: read-out: Vdss
Experimental: The tested compound was mixed with 10% DMSO/50% PEG400/40% water, vortexized and ultrasonic to prepare 0.2 mg/mL or 0.4 mg/ml, approximately clarified solution, which was filtered by a microporous membrane and then standby. Balb/c female mice of 18-20 g were selected and given the candidate compound solution intravenously at a dose of 1 or 2 mg/kg. The tested compound was mixed with 10% DMSO/50% PEG400/40% water, vortexized and ultrasonic to prepare 0.2 mg/mL or 1 mg/mL approximately clarified solution, which was filtered by a microporous membrane and then standby. Balb/c female mice of 18 to 20 g were selected and given orally the candidate compound solution at a dose of 2 or 10 mg/kg. Whole blood was collected for a certain period of time, and plasma was prepared. Drug concentration was analyzed by LC-MS/MS method, and pharmacokinetic parameters were calculated by Phoenix WinNonlin software (US Pharsight company).
C0: instantaneous concentration required after intravenous injection; Cmax: the highest blood concentration after administration; Tmax: time required to reach peak concentration after administration; T1/2: the time required for blood drug concentration to decrease by half; Vdss: apparent volume of distribution, which refers to the ratio constant of drug dosage to blood concentration when a drug reaches dynamic equilibrium in vivo. Cl: clearance rate, referring to drug apparent distribution volume number removed from the body per unit time; Tlast: time of last detection point: AUC0-last: an area under a drug duration curve, referring to an area surrounded by the blood drug concentration curve on the time axis; Bioavailability: a measure of the rate and extent of drug absorption into the blood circulation, which was an important index to evaluate drug absorption degree.

[2] = test system: human small cell lung cancer NCI-H69 cell subcutaneous xenograft tumor; assay: NCI-H69 subcutaneous xenograft, combination with etoposide, 22-day experiment (Table 7); assay type: in vivo, BALB/c nude mice; conditions: for T/C (%) / TGI (%): 22nd day; for Tumor volume (mm^3) (0th day) / Tumor volume (mm^3) (22th day): average ± SEM
Experimental: Experiment example 3: in vivo pharmacodynamics of human small cell lung cancer NCI-H69 cell subcutaneous xenograft tumor BALB/c nude mouse model:
Experimental animals: Female BALB/c nude mice, 6-8 weeks old, weighing 15-22 grams; supplier: Shanghai Linchang Biotechnology Co., LTD. (Linchang, Shanghai)
Human small cell lung cancer NCI-H69 cells (ATCC, item number: HTB-119 and ECACC-95111733) were cultured in vitro in a culture condition of RPMI-1640 medium with 10% fetal bovine serum, 100 U/mL penicillin and 100 μg/mL streptomycin, incubated at 37° C. and 5% CO2. Conventional passage was carried out twice a week. When cell saturation was 80%-90% and the number reaches the requirement, cells were collected, counted and inoculated.
0.2 mL (10×10^6) NCI-H69 cells (with matrix glue, and volume ratio of 1:1) were subcutaneously inoculated into a right back of each mouse, and group administration was initiated when the average tumor volume reaches about 110-120 mm^3.
The tested compound was prepared as a 5 mg/mL clarified solution with 10% DMSO+50% polyethylene glycol 400+40% water as the solvent.
The experimental indicators refers to study whether tumor growth was inhibited, delayed, or cured. Tumor diameter was measured twice a week with a vernier caliper. The calculation formula of the tumor volume was V=0.5a×b^2, and a and b represent the long diameter and short diameter of the tumor, respectively.
The antitumor efficacy of the compound was evaluated by TGI (%) or relative tumor proliferation rate T/C (%). TGI (%) reflects the tumor growth inhibition rate. The calculation of TGI (%): TGI (%)=[1−(average tumor volume at the end of administration of a certain treatment group−average tumor volume at the beginning of administration of the treatment group)/(average tumor volume at the end of treatment in solvent control group−average tumor volume at the beginning of treatment in solvent control group)]×control group.
Relative tumor proliferation rate T/C (%): the calculation formula was as follows: T/C %=[…] TRTV/CRTV group (TRTV: treatment group RTV; CRTV: negative control group RTV). According to results of tumor measurement, Relative Tumor Volume (RTV) was calculated by the formula RTV=Vt/V0, where V0 was the average tumor volume measured in group administration (i.e., d0), and Vt was the average tumor volume measured in a certain single measurement. TRTV and CRTV collect data on the same day.
Statistic analysis includes an average value and a standard error (SEM) of tumor volume at each time point for each group. […] If there was no significant difference in F value, Dunnet (2-sided) method was applied to analysis. All data were analyzed using SPSS 17.0. P<0.05 was considered as having a significant difference.

[3] = female, Balb/c, IV(1 mg/kg), mouse plasma
[4] = female, Balb/c, IV(2 mg/kg), mouse plasma
[5] = female, Balb/c, PO(2 mg/kg), mouse plasma
[6] = female, Balb/c, PO(10 mg/kg), mouse plasma
[7] = 40 mg/kg group (+ etoposide 10 mg/kg, IP)
[8] = 40 mg/kg, PO, QD + etoposide 10 mg/kg, IP, 3-day administration, 4-day withdrawal
[9] = second Embodiment 19 group of Table 7, 40 mg/kg, PO, QD + etoposide 10 mg/kg, IP

COc1ccc([C@@H](O)c2cc(-c3nncc4cc(N5CCOCC5)ccc34)c(F)cc2Cl)nn1 [Embodiment M3814, reference compound]
pIC50 (DNA-PK (h)): 9.00
Tlast ([1]; IV(1 mg/kg), mouse plasma): 6.00 h
Tlast ([1]; IV(2 mg/kg), mouse plasma): 4.00 h
Tlast ([1]; PO(2 mg/kg), mouse plasma): 8.00 h
Tlast ([1]; PO(10 mg/kg), mouse plasma): 8.00 h
bioavailability ([1]; female, Balb/c, PO(2 mg/kg)): 25.8%
bioavailability ([1]; female, Balb/c, PO(10 mg/kg)): 54%
AUC(0-t) [1, 3]: 1.33 µM·h
C0 [1, 3]: 1970 nM
clearance [1, 3]: 25.9 mL/min/kg
half-life [1, 3]: 42.4 min
Vd [1, 3]: 1.34 L/kg
AUC(0-t) [1, 4]: 1.41 µM·h
C0 [1, 4]: 2160 nM
clearance [1, 4]: 49 mL/min/kg
half-life [1, 4]: 28.7 min
Vd [1, 4]: 1.9 L/kg
AUC(0-t) [1, 5]: 0.688 µM·h
Cmax [1, 5]: 580 nM
half-life [1, 5]: 128 min
Tmax ([1]; female, Balb/c, PO(2 mg/kg), mouse plasma, read-out: Tmax): 15 min
AUC(0-t) [1, 6]: 3.73 µM·h
Cmax [1, 6]: 2060 nM
half-life [1, 6]: 85.8 min
Tmax ([1]; female, Balb/c, PO(10 mg/kg), mouse plasma, read-out: Tmax): 30 min
Weight changes [2, 7]: −16.00%
RTV (22th day) [2, 8]: 2.96
T/C (%) [2, 8]: 34.40%
TGI (%) [2, 8]: 74% and 74.21%
Tumor volume (mm^3) (0th day) [2, 8]: 119 ± 13 mm^3
Tumor volume (mm^3) (22th day) [2, 8]: 352 ± 26 mm^3

COc1ccc(C(O)c2cc(-c3cnnc4c(F)c(N5CCOCC5)cc(F)c34)c(F)cc2Cl)nn1 (single isomer, unassigned) [Embodiment 19]
pIC50 (DNA-PK (h)): 8.68
AUC0-last ([1]; IV(1 mg/kg), mouse plasma): 1.569 µM·h
C0 ([1]; IV(1 mg/kg), mouse plasma): 1290 nM
Cl ([1]; IV(1 mg/kg), mouse plasma): 20.2 mL/min/kg
T1/2 ([1]; IV(1 mg/kg), mouse plasma): 78.6 min
Tlast ([1]; IV(1 mg/kg), mouse plasma): 8.00 h
Vdss ([1]; IV(1 mg/kg), mouse plasma): 2.13 L/kg
AUC0-last ([1]; IV(2 mg/kg), mouse plasma): 3.832 µM·h
C0 ([1]; IV(2 mg/kg), mouse plasma): 2250 nM
Tlast ([1]; IV(2 mg/kg), mouse plasma): 8.00 h
Bioavailability (%) ([1]; PO(2 mg/kg)): 47.9%
AUC0-last ([1]; PO(2 mg/kg), mouse plasma): 1.503 µM·h
Cmax ([1]; PO(2 mg/kg), mouse plasma): 448 nM
T1/2 ([1]; PO(2 mg/kg), mouse plasma): 488 min
Tlast ([1]; PO(2 mg/kg), mouse plasma): 8.00 h
Tmax ([1]; PO(2 mg/kg), mouse plasma): 15 min
Bioavailability (%) ([1]; PO(10 mg/kg)): 70.5%
AUC0-last ([1]; PO(10 mg/kg), mouse plasma): 13.737 µM·h
Cmax ([1]; PO(10 mg/kg), mouse plasma): 2740 nM
T1/2 ([1]; PO(10 mg/kg), mouse plasma): 107 min
Tlast ([1]; PO(10 mg/kg), mouse plasma): 12.0 h
Tmax ([1]; PO(10 mg/kg), mouse plasma): 60 min
Weight changes [2, 7]: −5.88%
RTV (22th day) [2, 8]: 3.73
T/C (%) [2, 8]: 43.34%
TGI (%) [2, 8]: 64% and 63.98%
Tumor volume (mm^3) (0th day) [2, 8]: 119 ± 12 mm^3
Tumor volume (mm^3) (22th day) [2, 8]: 444 ± 34 mm^3
Weight changes ([2]; 80 mg/kg group (+ etoposide 10 mg/kg, IP)): 0.13%
TGI ([2]; 80 mg/kg, PO, QD + etoposide 10 mg/kg, IP, 3-day administration, 4-day withdrawal): 80%
RTV (22th day) [2, 9]: 2.51
Tumor volume (mm^3) (0th day) ([2]; second Embodiment 19 group of Table 7, 40 mg/kg, PO, QD + etoposide 10 mg/kg, IP, 3-day administration, 4-day withdrawal): 119 ± 12 mm^3
T/C (%) [2, 9]: 29.20%
TGI (%) [2, 9]: 80.09%
Tumor volume (mm^3) (22th day) [2, 9]: 299 ± 31 mm^3
